Source: patent US7455861B2, “Angelicae sinensis extracts useful for treatment of cancers” (priority 2004, dated 2008)

Assays:
DBTRG-05MG cells [1] = experiment: Western blot analysis of apoptosis molecules; type: cell-based, human; details: BP 400 μM
Experimental: DBTRG-05MG cells (human GBM cells) were treated with AS-C (70 μg/ml) for 0, 6, 12, 24 and 48 hours. In another test, DBTRG-05MG cells were treated with BP (400 μM) for 0, 1.5, 3, 6, 12, 24 and 48 hours. The cell pellets were re-suspended in lysis buffer ([…] Tris-HCl, pH 7.5, 1 mM EGTA, 0.5% CHAPS, 10% (v/v) glycerol, 5 mM β-2-mercaptoethanol and 0.1 mM phenylmethylsulfonyl fluoride) and incubated on ice for 30 min, and then centrifuged at 13000×rpm at 4° C. for 20 minutes. The protein concentration of whole cell lysates was measured with BCA protein assay kit (Pierce, Rockford, Ill.) following the manufacturer's instructions. The cell lysates (20 μg/lane) were electrophoresed on 10-12% SDS-PAGE (Bio-Rad, Hercules, Calif.). Proteins were transferred to polyvinyldenefluoride (PVDF) membranes (Amersham Lifesciences, Piscataway, N.J.). The membranes were masked for 1 hour at room temperature with 5% skim milk as the blocking agent, and incubated with the respective antibodies of Fas (FL-335), Fas-L (C-178), caspase 3 (H-277), caspase 8 (H-134), caspase 9 (H-170), Bax (B-9), p16 (F-12), p21 (F-5), p53 (DO-1; 1/100 dilution) (Santa Cruz Biotechnology Inc., CA, U.S.A.), phospho-p53 (Ser15; 1/2000 dilution) and phospho-Rb (Ser795; 1/2000 dilution) (Cell Signaling Technology, MA, USA) for 2 hours at room temperature. Antibody recognition was detected, by incubating the membranes with the respective anti-mouse, anti-rabbit, anti-goat IgG secondary antibodies (1/1000 dilution; Santa Cruz Biotechnology Inc., CA, U.S.A.) conjugated to horseradish peroxidase, for 1 hour at room temperature, and visualized with the ECL Plus chemiluminescence system (Amersham, Arlington Heights, Ill.). For system control, SDS-PAGE gels, for every test sample, were prepared in duplicate, containing the same amount of protein; and the control gel was stained with coomassie blue. The other gel was used for Western Blot analysis. The intensity of the bands was analyzed by densitometry with a GS-800 Calibrated Imaging Densitometer (Quantity One 4.0.3 software; Bio-Rad). […] In addition, the activation of the death receptor-induced apoptosis-related caspases-8 was monitored.

DBTRG-05MG cells [2] = experiment: s.c. xenograft human GBM tumors in nude mice, BP; type: in vivo, Foxn1 nude mice
Experimental: The RG2 cells (rat GBM) and DBTRG-05MG cells (human GBM) were used in animal experiments to monitor the anti-tumor activities of AS-C and BP. Male F344 rat (230-260 g) and male Foxn1 nu/nu mice (10-12 weeks) were obtained from National Laboratory Animal Center (Taipei, Taiwan). All procedures were performed in compliance with the Standard Operation Procedures of the Laboratory Animal Center of Tzu Chi University (Hualien, Taiwan). Animals were kept under pathogen-free conditions and fed a standard laboratory diet. The DBTRG-05MG cells (human GBM) and RG2 cells (rat GBM) were prepared for nude mice xenografts and rat allogenics, respectively.
Animals (Foxn1 nude mice) in six groups (6/group) were implanted subcutaneously (s.c.) with 1×10^6 DBTRG-05MG cells, and randomly treated with BP s.c. (70, 150, 300, 500, 800 mg/kg/day) or vehicle s.c. at a site remote (>2 cm) from the incubated tumor after tumor cell implantation, at day 4, 5, 6, 7 and 8 for all five dosages. Tumor size was measured every 2 days and tumor volume was calculated. Animals were sacrificed when tumor exceeded 1000 mm^3. Tumor growth was monitored for 3 months for those not sacrificed. Survival rate was followed for up to 200 days.

**Q.** With `CCCC=C1OC(=O)c2ccccc21` [BP, n-Butylidenephthalide] as the compound, how does the Caspase-3 (DBTRG-05MG cells [1]) read?
**A.** increase

**Q.** And the “cdk2, cdk4, cdk6 cyclins D1 and cycline E” value (DBTRG-05MG cells [1])?
**A.** decrease

**Q.** And the “expression of the Fas Ligand” value (DBTRG-05MG cells [1])?
**A.** suppressing

**Q.** And the “procaspase 8” value (DBTRG-05MG cells [1])?
**A.** declined

**Q.** What about the procaspase-3 (DBTRG-05MG cells [1]) of the same compound?
**A.** declined

**Q.** And the procaspase-9 (DBTRG-05MG cells [1])?
**A.** declined

**Q.** And the “expression of Fas, increase” value (DBTRG-05MG cells [1]; 1.5 h)?
**A.** 5.2 times

**Q.** What about the p53 phosphorylation increase (DBTRG-05MG cells [1]; 1.5 h) of the same compound?
**A.** 5.2 times

**Q.** And the AIF expression increase (DBTRG-05MG cells [1]; 48 h)?
**A.** 2.4 times

**Q.** What about the Bax expression increase (DBTRG-05MG cells [1]; 48 h) of the same compound?
**A.** 16 times

**Q.** And the Rb phosphorylation decrease (DBTRG-05MG cells [1]; 48 h)?
**A.** 0.2 times

**Q.** What about the “activated caspase-9” value (DBTRG-05MG cells [1]; 48 h) of the same compound?
**A.** 25.8 times

**Q.** What about the “activation of caspase 8” value (DBTRG-05MG cells [1]; 48 h) of the same compound?
**A.** 137.9

**Q.** And the “expression of Fas, increase” value (DBTRG-05MG cells [1]; 48 h)?
**A.** 27.9 times

**Q.** And the p16 expression increase (DBTRG-05MG cells [1]; 48 h)?
**A.** 3.1 times

**Q.** What about the p21 expression increase (DBTRG-05MG cells [1]; 48 h) of the same compound?
**A.** 2.3 times

**Q.** And the p53 expression increase (DBTRG-05MG cells [1]; 48 h)?
**A.** 1.4 times

**Q.** And the p53 phosphorylation increase (DBTRG-05MG cells [1]; 48 h)?
**A.** 9.2 times

**Q.** What about the “tumor growth compared with untreated group” value (DBTRG-05MG cells [2]; BP s.c. 70-800 mg/kg/day day 4-8, dose dependent, p<0.005 for 300 mg/kg) of the same compound?
**A.** significant suppressions of tumor growth

**Q.** What about the “survival period of nude mice” value (DBTRG-05MG cells [2]; BP s.c. 70-800 mg/kg/day, followed for up to 200 days) of the same compound?
**A.** up to 200 days
